Results: the supplement of paper PMC10307832

What follows are cell lines tested with CC[C@@H]1C(=O)N(C)c2cnc(Nc3ccc(C(=O)NC4CCN(C)CC4)cc3OC)nc2N1C1CCCC1 [BI-2536] + C[C@]1(O)C[C@@H](c2nc(-c3ccc4ccc(-c5ccccc5)nc4c3)c3c(N)nccn32)C1 [Linsitinib] (partner 1 µM) (assay: relative viability (nuclei count vs DMSO), 5 days (fraction); higher = more cells survive). Details: first compound 1 µM.
How it was run: (§1)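 Each reported value is a median over duplicate plates. It expresses relative viability: treated-well nuclei count divided by vehicle-well nuclei count. Lung cancer cell lines in 1536-well plates were dosed by pin tool a day after seeding, alone with one drug or with a fixed anchor-drug dose plus five library-drug doses (not always all listed) in √10 steps, and nuclei were counted after 5 days.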

Row | Cell Line | relative viability
1 | PC-14 | 0.0823

The cell lines below were run with CC1CC(=O)N(C2=CN=C(N=C2N1C3CCCC3)NC4=C(C=C(C=C4)C(=O)NC5CCN(CC5)C)OC)C [NPK76-II-72-1] + Cc1nc(NC(=O)N2CCC[C@H]2C(N)=O)sc1-c1ccnc(C(C)(C)C(F)(F)F)c1 [Alpelisib] (partner 2 µM) in the same assay as above. Details: first compound 0.01 µM.
How it was run: as §1

Row | Cell Line | relative viability
2 | BEN | 0.967
3 | HARA | 0.783
4 | NCI-H322M | 0.781
5 | NCI-H2009 | 1.19
6 | A-427 | 1.08
7 | NCI-H441 | 0.536
8 | NCI-H661 | 0.609
9 | NCI-H1734 | 0.675
10 | NCI-H460 | 0.469
11 | NCI-H2347 | 0.992
12 | SK-LU-1 | 1.04
13 | NCI-H1395 | 1.02
14 | 201T | 1.02
15 | NCI-H1915 | 1.07
16 | HCC-827 | 0.942
17 | LXF-289 | 0.987

Row | Cell Line | relative viability
18 | NCI-H23 | 0.759
19 | NCI-H647 | 0.985
20 | CAL-12T | 1.13
21 | NCI-H1651 | 0.887
22 | EPLC-272H | 0.854
23 | NCI-H2228 | 0.595
24 | NCI-H1792 | 0.747
25 | NCI-H1355 | 0.834
26 | NCI-H3122 | 0.709
27 | NCI-H1437 | 0.972
28 | NCI-H1755 | 0.883
29 | NCI-H2023 | 0.568
30 | HCC-15 | 0.828
31 | NCI-H1793 | 0.611
32 | PC-14 | 0.943

Same assay, conditions: first compound 0.03162 µM

Row | Cell Line | relative viability
33 | BEN | 1.05
34 | HARA | 0.975
35 | NCI-H322M | 0.73
36 | LCLC-97TM1 | 0.24
37 | NCI-H2009 | 1.25
38 | A-427 | 1.1
39 | NCI-H441 | 0.648
40 | NCI-H661 | 0.665
41 | NCI-H1734 | 0.628
42 | NCI-H460 | 0.541
43 | NCI-H2347 | 1
44 | SK-LU-1 | 1.03
45 | NCI-H1395 | 0.994
46 | 201T | 1.04
47 | NCI-H1915 | 1.06
48 | HCC-827 | 0.931

Row | Cell Line | relative viability
49 | LXF-289 | 1.07
50 | NCI-H23 | 0.871
51 | NCI-H647 | 1.28
52 | CAL-12T | 1.15
53 | NCI-H1651 | 1.03
54 | EPLC-272H | 0.88
55 | NCI-H2228 | 0.81
56 | NCI-H1792 | 0.793
57 | NCI-H1355 | 0.827
58 | NCI-H3122 | 0.724
59 | NCI-H1437 | 0.945
60 | NCI-H1755 | 0.983
61 | NCI-H2023 | 0.691
62 | HCC-15 | 0.965
63 | NCI-H1793 | 0.679
64 | PC-14 | 0.956

Same assay, conditions: first compound 0.1 µM

Row | Cell Line | relative viability
65 | BEN | 1.01
66 | HARA | 0.822
67 | NCI-H322M | 0.766
68 | LCLC-97TM1 | 0.18
69 | NCI-H2009 | 1.02
70 | A-427 | 1.02
71 | NCI-H441 | 0.866
72 | NCI-H661 | 0.886
73 | NCI-H1734 | 0.722
74 | NCI-H460 | 0.478
75 | NCI-H2347 | 1.07
76 | SK-LU-1 | 0.945
77 | NCI-H1395 | 0.979
78 | 201T | 1.02
79 | NCI-H1915 | 1.05
80 | HCC-827 | 0.988
81 | LXF-289 | 1.05
82 | CAL-12T | 0.877
83 | NCI-H1651 | 0.893
84 | EPLC-272H | 0.964
85 | NCI-H2228 | 0.555
86 | NCI-H1792 | 0.668
87 | NCI-H1355 | 0.544
88 | NCI-H3122 | 0.789
89 | NCI-H1437 | 0.974
90 | NCI-H1755 | 0.91
91 | NCI-H2023 | 0.592
92 | HCC-15 | 0.875
93 | NCI-H1793 | 0.677
94 | PC-14 | 0.946

Same assay, conditions: first compound 0.3162 µM

Row | Cell Line | relative viability
95 | BEN | 1.02
96 | HARA | 0.523
97 | NCI-H322M | 0.922
98 | LCLC-97TM1 | 0.235
99 | NCI-H2009 | 1.14
100 | A-427 | 1.09
101 | NCI-H441 | 0.767
102 | NCI-H661 | 0.451
103 | NCI-H1734 | 0.599
104 | NCI-H460 | 0.442
105 | NCI-H2347 | 1.07
106 | SK-LU-1 | 1.01
107 | NCI-H1395 | 1.17
108 | 201T | 0.999
109 | NCI-H1915 | 1.01
110 | HCC-827 | 1.02

Row | Cell Line | relative viability
111 | LXF-289 | 1.01
112 | NCI-H23 | 0.657
113 | NCI-H647 | 1.02
114 | CAL-12T | 1.03
115 | NCI-H1651 | 0.852
116 | EPLC-272H | 0.928
117 | NCI-H2228 | 0.733
118 | NCI-H1792 | 0.711
119 | NCI-H1355 | 0.755
120 | NCI-H3122 | 0.838
121 | NCI-H1437 | 0.898
122 | NCI-H1755 | 0.896
123 | NCI-H2023 | 0.529
124 | HCC-15 | 0.919
125 | NCI-H1793 | 0.521
126 | PC-14 | 0.916

Same assay, conditions: first compound 1 µM

Row | Cell Line | relative viability
127 | BEN | 1.09
128 | HARA | 0.983
129 | NCI-H322M | 0.818
130 | LCLC-97TM1 | 0.257
131 | NCI-H2009 | 1.15
132 | A-427 | 1.03
133 | NCI-H441 | 0.901
134 | NCI-H661 | 0.797
135 | NCI-H1734 | 0.86
136 | NCI-H460 | 0.497
137 | NCI-H2347 | 1.11
138 | SK-LU-1 | 1.18
139 | NCI-H1395 | 1.03
140 | 201T | 1.09
141 | NCI-H1915 | 1.1
142 | HCC-827 | 1.09

Row | Cell Line | relative viability
143 | LXF-289 | 1.05
144 | NCI-H23 | 0.804
145 | NCI-H647 | 1.18
146 | CAL-12T | 1.27
147 | NCI-H1651 | 1.04
148 | EPLC-272H | 0.88
149 | NCI-H2228 | 0.807
150 | NCI-H1792 | 0.767
151 | NCI-H1355 | 0.849
152 | NCI-H3122 | 0.776
153 | NCI-H1437 | 1
154 | NCI-H1755 | 0.938
155 | NCI-H2023 | 0.548
156 | HCC-15 | 0.97
157 | NCI-H1793 | 0.788
158 | PC-14 | 1.04

Each cell line was assayed with CC[C@@H]1C(=O)N(C)c2cnc(Nc3ccc(C(=O)NC4CCN(C)CC4)cc3OC)nc2N1C1CCCC1 [BI-2536] + CC(=O)Nc1cccc(-n2c(=O)n(C3CC3)c(=O)c3c(Nc4ccc(I)cc4F)n(C)c(=O)c(C)c32)c1 [Trametinib] (partner 0.02 µM) in the same assay as above. Details: first compound 0.01 µM.
How it was run: as §1

Row | Cell Line | relative viability
159 | BEN | 1.05
